Usually ED50 stands for the midpoint of the dose-response relation.

This note sets out measurements from patent US5109011A, “P-acylaminophenoxycarbamates and derivatives” (Hoechst-Roussel Pharmaceuticals Incorporated, priority 1990, dated 1992).

The assay has as its system phenyl-para-quinone induced writhing. Kind of assay: phenyl-para-quinone writhing assay in mice (analgesia). It is filed as in vivo. The settings on record: Mus musculus, oral, read-out: Analgesic Activity ED50 (oral dose at which 50% of the phenyl-para-quinone induced writhing is inhibited). The source says:
Exptl. Biol. Med., 95,729 (1957)]. Presented in Table I is the analgesic effect of some of the compounds of the invention expressed as the oral dose at which 50% of the phenyl-para-quinone induced writhing is inhibited in the animals, i.e., the ED50 value.

Molecules are shown by their SMILES.

Regarding `CC(=O)Nc1ccc(O)cc1` [Acetaminophen, reference compound], the median effective dose (ED50) came to 33.8 mg/kg.

For `CC(=O)Nc1ccc(OC(=O)N(C)OCc2ccccc2)cc1` [4-(acetylamino)phenyl-N-benzyloxy-N-methyl carbamate], the ED50 was 28.5 mg/kg.

Consider `CC(=O)Nc1ccc(OC(=O)N(C)OC(C)=O)cc1` [4-(Acetylamino)phenyl-N-(acetyloxy)-N-methyl carbamate], for which the median effective dose (ED50) stood at 42.7 mg/kg.

Take `CC(=O)Nc1ccc(OC(=O)N(C)O)cc1` [4-(Acetylamino)phenyl-N-hydroxy-N-methyl carbamate]: the ED50 worked out at 32.3 mg/kg.
